Patent US10166218B2, “3-(1H-indol-2-yl)-1H-pyrazolo[3,4-C]pyridines and therapeutic uses thereof” (Samumed, LLC, priority 2015, dated 2019)

Key:
Format in all cases: cell-based
[1] = tested on: SW480 colon cancer cells; experiment: Cell viability assay (CellTiter-Blue) in SW480 colon cancer cells; conditions: Homo sapiens, 96 h, four days; for EC50: CellTiter-Blue; for inhibition at 10 µM: read-out: percent inhibition at 10 μM (given for EC50 of >10 μM)
How it was run: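 Approximately 2×10^3 SW480 cells per well are seeded with compound (8 points, threefold steps, top 10 μM) and incubated four days at 37 °C. CellTiter-Blue is then added for about 3 h and fluorescence read. Non-linear regression gives EC50; for values beyond 10 μM, percent inhibition at that concentration is listed.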

[2] = tested on: primary human fibroblasts derived from IPF patients (LL29 cells) treated with TGF-β1; α-smooth muscle actin (αSMA); experiment: Inhibition of the fibrotic process: αSMA staining in TGF-β1 treated primary human fibroblasts from IPF patients (LL29 cells); conditions: Fibroblast, 96 h, TGF-β1 20 ng/mL, 4 days; for EC50: % cells positive for αSMA; for inhibition at 10 µM: αSMA, read-out: percent inhibition at 10 μM (given for EC50 of >10 μM)
How it was run: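 Compound dilutions from 10 μM down to […] are dispensed, LL29 cells added in F12 with 1% FBS, and TGF-β1 (20 ng/mL) follows after 1 h. After 4 days, live-cell αSMA positivity is measured by immunofluorescence and normalized to TGF-β1-treated wells to derive EC50.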

[3] = tested on: IL-6 (THP-1 cells); experiment: Inhibition of IL-6 in LPS-stimulated THP-1 human monocyte cells (HTRF); conditions: for EC50: inhibition of IL-6 in LPS-stimulated THP-1 cells, HTRF, 10-point dose-response starting from 10 μM; for inhibition at 10 µM: IL-6 assay in LPS-stimulated THP-1 cells, given only where EC50 >10 μM, meaning not given (top concentration 10 μM), read-out: percentage given in parentheses after EC50 >10
How it was run: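 THP-1 cells, serum-reduced (1% FBS) for 24 h, were preincubated with compound (10-point 1:3 series from 10 μM, 0.1% DMSO) for 2 h, then stimulated with 500 ng/mL LPS for 22 h at 37° C. IL-6 was read by HTRF (665/620 nm ratio) and normalized to DMSO. EC50 from four-parameter fit; % inhibition at 10 μM given if EC50 >10 μM.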

SMILES | EC50 [1] [µM] | EC50 [2] [µM] | EC50 [3] [µM] | inhibition at 10 µM [1] [%] | inhibition at 10 µM [3] [%] | inhibition at 10 µM [2] [%]
CN(C)Cc1cncc(-c2cc3c(-c4cc5c(-c6ccccn6)cccc5[nH]4)n[nH]c3cn2)c1 [Compound 153, N,N-Dimethyl-1-(5-(3-(4-(pyridin-2-yl)-1H-indol-2-yl)-1H-pyrazolo[3,4-c]pyridin-5-yl)pyridin-3-yl)methanamine] | 2.06 | 0.461 | 0.989 |  |  | 
c1cc(-c2ccoc2)c2cc(-c3n[nH]c4cnc(-c5cn[nH]c5)cc34)[nH]c2c1 [Compound 711, 3-(4-(Furan-3-yl)-1H-indol-2-yl)-5-(1H-pyrazol-4-yl)-1H-pyrazolo[3,4-c]pyridine] | > 10 | 0.125 | > 10 | 45.1 | 0 | 
c1ccc2[nH]c(-c3n[nH]c4cnc(-c5cncc(CN6CCCC6)c5)cc34)cc2c1 [Compound 266, 3-(1H-Indol-2-yl)-5-(5-(pyrrolidin-1-ylmethyl)pyridin-3-yl)-1H-pyrazolo [3,4-c]pyridine] | 1.64 | 0.143 | 0.424 |  |  | 
Fc1ccc(-c2cccc3[nH]c(-c4n[nH]c5cnc(-c6cncc(CN7CCCC7)c6)cc45)cc23)cc1 [Compound 42, 3-(4-(4-Fluorophenyl)-1H-indol-2-yl)-5-(5-(pyrrolidin-1-ylmethyl)pyridin-3-yl)-1H-pyrazolo[3,4-c]pyridine] | 1.08 | 0.078 | 3.81 |  |  | 
Nc1cncc(-c2cc3c(-c4cc5c(-c6ccccn6)cccc5[nH]4)n[nH]c3cn2)c1 [Compound 143, 5-(3-(4-(Pyridin-2-yl)-1H-indol-2-yl)-1H-pyrazolo[3,4-c]pyridin-5-yl) pyridin-3-amine] | 1.92 | 0.098 | 0.549 |  |  | 
O=C(Cc1ccccc1)Nc1cncc(-c2cc3c(-c4cc5c(-c6ccc(F)cc6)cccc5[nH]4)n[nH]c3cn2)c1 [Compound 38, N-(5-(3-(4-(4-Fluorophenyl)-1H-indol-2-yl)-1H-pyrazolo[3,4-c]pyridin-5-yl)pyridin-3-yl)-2-phenylacetamide] | 4.32 | 0.659 | > 10 |  | 29.4 | 
O=C(Nc1cncc(-c2cc3c(-c4cc5c(-c6cccc(F)c6)cccc5[nH]4)n[nH]c3cn2)c1)c1ccccc1 [Compound 11, N-(5-(3-(4-(3-Fluorophenyl)-1H-indol-2-yl)-1H-pyrazolo[3,4-c]pyridin-5-yl)pyridin-3-yl)benzamide] | 5.42 | 0.873 | 3.21 |  |  | 
O=C(CC1CCNCC1)Nc1cncc(-c2cc3c(-c4cc5c(-c6ccccn6)cccc5[nH]4)n[nH]c3cn2)c1 [Compound 621, 2-(Piperidin-4-yl)-N-(5-(3-(4-(pyridin-2-yl)-1H-indol-2-yl)-1H-pyrazolo[3,4-c]pyridin-5-yl)pyridin-3-yl)acetamide] | > 10 | 3.14 | 1.65 | 29.3 |  | 
CC(C)C(=O)Nc1cncc(-c2cc3c(-c4cc5c(-c6ccccc6F)cccc5[nH]4)n[nH]c3cn2)c1 [Compound 65, N-(5-(3-(4-(2-Fluorophenyl)-1H-indol-2-yl)-1H-pyrazolo[3,4-c]pyridin-5-yl)pyridin-3-yl)isobutyramide] | 5.05 | 1.11 | > 10 |  | 30.1 | 
Fc1ccc(-c2cccc3[nH]c(-c4n[nH]c5cnc(-c6cncnc6)cc45)cc23)cc1 [Compound 55, 3-(4-(4-Fluorophenyl)-1H-indol-2-yl)-5-(pyrimidin-5-yl)-1H-pyrazolo[3,4-c]pyridine] | > 10 | 2.66 | 9.59 | 13.6 |  | 
CN(C)CCOc1cncc(-c2cc3c(-c4cc5ncccc5[nH]4)n[nH]c3cn2)c1 [Compound 1029, 2-((5-(3-(1H-Pyrrolo[3,2-b]pyridin-2-yl)-1H-pyrazolo[3,4-c]pyridin-5-yl)pyridin-3-yl)oxy)-N,N-dimethylethan-1-amine] | > 10 | 1.72 | 2.45 | 17.1 |  | 
O=C(Nc1cncc(-c2cc3c(-c4cc5ccccc5[nH]4)n[nH]c3cn2)c1)c1ccccc1 [Compound 263, N-(5-(3-(1H-Indol-2-yl)-1H-pyrazolo[3,4-c]pyridin-5-yl)pyridin-3-yl) benzamide] | 4.92 | 0.065 | 1.19 |  |  | 
c1csc(-c2cccc3[nH]c(-c4n[nH]c5cnc(C6CCNCC6)cc45)cc23)c1 [Compound 725, 5-(Piperidin-4-yl)-3-(4-(thiophen-2-yl)-1H-indol-2-yl)-1H-pyrazolo[3,4-c]pyridine] | > 10 | > 10 | > 10 | 8.1 | 45.4 | 4.5
O=C(Nc1cncc(-c2cc3c(-c4cc5c(-c6cccnc6)cccc5[nH]4)n[nH]c3cn2)c1)c1ccccc1 [Compound 95, N-(5-(3-(4-(Pyridin-3-yl)-1H-indol-2-yl)-1H-pyrazolo[3,4-c]pyridin-5-yl)pyridin-3-yl)benzamide] | 1.4 | 0.166 | 0.727 |  |  | 
CN(C)CCOc1cncc(-c2cc3c(-c4cc5c(-c6cccnc6)cccc5[nH]4)n[nH]c3cn2)c1 [Compound 591, N,N-Dimethyl-2-((5-(3-(4-(pyridin-3-yl)-1H-indol-2-yl)-1H-pyrazolo[3,4-c]pyridin-5-yl)pyridin-3-yl)oxy)ethan-1-amine] | 2.78 | 2.19 | 1.46 |  |  | 
c1cncc(-c2cc3c(-c4cc5c(-c6cccnc6)cccc5[nH]4)n[nH]c3cn2)c1 [Compound 88, 5-(Pyridin-3-yl)-3-(4-(pyridin-3-yl)-1H-indol-2-yl)-1H-pyrazolo[3,4-c]pyridine] | 1.09 | 0.305 | 0.109 |  |  | 
O=C(Nc1cncc(-c2cc3c(-c4cc5c(-c6cccnc6)cccc5[nH]4)n[nH]c3cn2)c1)C1CC1 [Compound 104, N-(5-(3-(4-(Pyridin-3-yl)-1H-indol-2-yl)-1H-pyrazolo[3,4-c]pyridin-5-yl)pyridin-3-yl)cyclopropanecarboxamide] | 1.47 | 0.189 | 0.226 |  |  | 
Cc1ccncc1-c1cc2c(-c3cc4c(-c5ccccn5)cccc4[nH]3)n[nH]c2cn1 [Compound 145, 5-(4-Methylpyridin-3-yl)-3-(4-(pyridin-2-yl)-1H-indol-2-yl)-1H-pyrazolo [3,4-c]pyridine] | 0.814 | 0.223 | 2.83 |  |  | 
Fc1ccccc1-c1cccc2[nH]c(-c3n[nH]c4cnc(-c5cn[nH]c5)cc34)cc12 [Compound 567, 3-(4-(2-Fluorophenyl)-1H-indol-2-yl)-5-(1H-pyrazol-4-yl)-1H-pyrazolo[3,4-c]pyridine] | > 10 | 0.027 | 0.438 | 46.1 |  | 
CS(=O)(=O)NCc1cc(F)cc(-c2cccc3[nH]c(-c4n[nH]c5cnc(-c6cncnc6)cc45)cc23)c1 [Compound 503, N-(3-Fluoro-5-(2-(5-(pyrimidin-5-yl)-1H-pyrazolo[3,4-c]pyridin-3-yl)-1H-indol-4-yl)benzyl)methanesulfonamide] | 4 | > 10 | 2.98 |  |  | 0
O=C(Nc1cncc(-c2cc3c(-c4cc5c(-c6ccncc6)cccc5[nH]4)n[nH]c3cn2)c1)C1CCC1 [Compound 133, N-(5-(3-(4-(Pyridin-4-yl)-1H-indol-2-yl)-1H-pyrazolo[3,4-c]pyridin-5-yl)pyridin-3-yl)cyclobutanecarboxamide] | > 10 | 0.391 | 0.251 | 45.9 |  | 
CCNCc1cncc(-c2cc3c(-c4cc5c(-c6ccc(F)cc6)cccc5[nH]4)n[nH]c3cn2)c1 [Compound 34, N-((5-(3-(4-(4-Fluorophenyl)-1H-indol-2-yl)-1H-pyrazolo[3,4-c]pyridin-5-yl)pyridin-3-yl)methyl)ethanamine] | 0.805 | 0.029 | 0.399 |  |  | 
CCCCC(=O)Nc1cncc(-c2cc3c(-c4cc5c(-c6ccccn6)cccc5[nH]4)n[nH]c3cn2)c1 [Compound 159, N-(5-(3-(4-(Pyridin-2-yl)-1H-indol-2-yl)-1H-pyrazolo[3,4-c]pyridin-5-yl)pyridin-3-yl)pentanamide] | 2.81 | 0.269 | 1.56 |  |  | 
c1cncc(-c2cccc3[nH]c(-c4n[nH]c5cnc(-c6cncc(CN7CCCC7)c6)cc45)cc23)c1 [Compound 98, 3-(4-(Pyridin-3-yl)-1H-indol-2-yl)-5-(5-(pyrrolidin-1-ylmethyl)pyridin-3-yl)-1H-pyrazolo[3,4-c]pyridine] | 7.22 | 1.61 | 1.52 |  |  | 
